Columns and labels:
Format in all cases: in vivo
[1] = test system: Veronica persica; assay: Post-emergence herbicidal action, VERPE; design: key: % herbicidal action vs untreated; 100 = plants died, 0 = like control; conditions: for Herbicidal action against VERPE: comparative experiment, 20 g of a.i./ha
Outline: (§1)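 Values are visual estimates of herbicidal action, from 0% (as untreated) to 100% (dead), made about 3 weeks after plants at one-leaf stage in sandy loam were sprayed with the formulated compound.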

[2] = test system: Matricaria inodora; assay: Pre-emergence herbicidal action, MATIN; design: key to Herbicidal action against MATIN: % activity: 100 = plants have died, 0 = like control plants; conditions: for herbicidal activity MATIN: scored visually after 3 weeks vs untreated controls (100% = plants have died)
Outline: (§2)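 Seeds sown in sandy loam in pots and covered with soil; compounds formulated as WP or EC were sprayed onto the soil surface as aqueous suspension/emulsion at 600 to 800 l/ha water with 0.2% wetting agent. Greenhouse growth; visual damage scored after 3 weeks versus untreated controls (100% = plants died, 0% = like control).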

[3] = test system: Polygonum convolvulus; assay: Pre-emergence herbicidal action, POLCO; conditions: for herbicidal activity POLCO: scored visually after 3 weeks vs untreated controls (100% = plants have died)
Outline: as §2

[4] = test system: Viola tricolor; assay: Pre-emergence herbicidal action, VIOTR; design: key to Herbicidal action against VIOTR: % activity: 100 = plants have died, 0 = like control plants; conditions: for herbicidal activity VIOTR: scored visually after 3 weeks vs untreated controls (100% = plants have died)
Outline: as §2

[5] = test system: Matricaria inodora; assay: Post-emergence herbicidal action, MATIN; design: key: % herbicidal action vs untreated; 100 = plants died, 0 = like control
Outline: as §1

[6] = test system: Setaria viridis; assay: Pre-emergence herbicidal action, SETVI; design: key to Herbicidal action against SETVI: % activity: 100 = plants have died, 0 = like control plants; conditions: for Herbicidal action against SETVI: comparative experiment; for herbicidal activity SETVI: scored visually after 3 weeks vs untreated controls (100% = plants have died)
Outline: as §2

[7] = comparative experiment, 80 g of a.i./ha

| SMILES | herbicidal action VERPE ([1]; Dosage 80 g/ha) | herbicidal activity MATIN ([2]; dosage 320 g/ha) [%] | herbicidal activity POLCO ([3]; dosage 320 g/ha) [%] | herbicidal activity VIOTR ([4]; dosage 320 g/ha) [%] | herbicidal action MATIN ([5]; Dosage 80 g/ha) | herbicidal activity SETVI ([6]; dosage 320 g/ha) [%] | herbicidal action VERPE ([1]; post-emergence, dosage 80 g/ha) [%] | herbicidal action MATIN ([5]; post-emergence, dosage 80 g/ha) [%] | other results |
| --- | --- | --- | --- | --- | --- | --- | --- | --- | --- |
| Cn1nnnc1NC(=O)c1ccc(I)c(CS(C)(=O)=O)c1Cl [Example 1-364] | 100 | 100 | 100 | 100 | 100 | 100 | – | – | Herbicidal action against POLCO ([3]; comparative experiment, 20 g of a.i./ha): 90; Herbicidal action against SETVI ([6]; 20 g of a.i./ha): 100 |
| CCSCc1c(C(F)(F)F)ccc(C(=O)Nc2nnnn2C)c1Br [Example 1-383] | – | 100 | 100 | 100 | – | 100 | 100 | 90 | Herbicidal action against VERPE ([1]; post-emergence): 100; Herbicidal action against VIOTR [4, 7]: 100; Herbicidal action against SETVI ([6]; 80 g of a.i./ha): 100 |
| CCS(=O)(=O)Cc1c(C(F)(F)F)ccc(C(=O)Nc2nnnn2C)c1Br [Example 1-385] | – | 100 | 90 | 100 | – | 100 | 100 | 90 | Herbicidal action against VERPE ([1]; post-emergence): 100; Herbicidal action against MATIN [2, 7]: 100; Herbicidal action against MATIN ([5]; comparative experiment, post-emergence, 20 g of a.i./ha): 90; Herbicidal action against SETVI ([6]; 80 g of a.i./ha): 90 |
| Cn1nnnc1NC(=O)c1ccc(C(F)(F)F)c(CS(C)(=O)=O)c1C(F)(F)C(F)(F)F [Example 1-552] | 100 | 100 | 90 | 100 | 90 | 100 | – | – | – |
| CCSCc1c(C(F)(F)F)ccc(C(=O)Nc2nnnn2CC)c1C [Example 2-86] | – | – | – | – | – | – | 90 | 100 | herbicidal action MATIN ([2]; dosage 320 g/ha): 100%; herbicidal action POLCO ([3]; dosage 320 g/ha): 80%; herbicidal action VIOTR ([4]; dosage 320 g/ha): 100%; herbicidal action SETVI ([6]; dosage 320 g/ha): 100% |
| CCn1nnnc1NC(=O)c1ccc(C(F)(F)F)c(C[S+](C)[O-])c1SC (stereo not drawn) [Example 2-162] | 90 | 100 | 100 | 100 | 100 | 100 | – | – | – |
| CCn1nnnc1NC(=O)c1ccc(C(F)F)c(CSC)c1SC [Example 2-170] | 90 | 100 | 100 | 100 | 100 | 100 | – | – | – |
| CCn1nnnc1NC(=O)c1ccc(C(F)F)c(C[S+](C)[O-])c1SC (stereo not drawn) [Example 2-171] | 100 | 100 | 90 | 100 | 100 | 100 | – | – | – |
| CCn1nnnc1NC(=O)c1ccc(C(F)(F)F)c(CSC)c1Cl [Example 2-296] | – | 100 | 100 | 100 | – | 100 | 100 | 90 | – |
| CCn1nnnc1NC(=O)c1ccc(C(F)(F)F)c(C[S+](C)[O-])c1Cl (stereo not drawn) [Example 2-297] | – | 100 | 80 | 100 | – | 100 | 100 | 100 | – |
| CCn1nnnc1NC(=O)c1ccc(C(F)(F)F)c(CS(C)(=O)=O)c1Cl [Example 2-298] | 100 | 100 | 90 | 100 | 100 | 100 | – | – | – |
| CCSCc1c(C(F)(F)F)ccc(C(=O)Nc2nnnn2CC)c1Cl [Example 2-299] | – | 100 | 90 | 100 | – | 100 | 100 | 100 | – |
| CCn1nnnc1NC(=O)c1ccc(C(F)(F)F)c(C[S+]([O-])CC)c1Cl (stereo not drawn) [Example 2-300] | – | 100 | 100 | 100 | – | 100 | 100 | 90 | – |
| CCn1nnnc1NC(=O)c1ccc(C(F)(F)F)c(CSCCOC)c1Cl [Example 2-305] | – | 100 | 100 | 100 | – | 100 | 100 | 100 | – |
| CCn1nnnc1NC(=O)c1ccc(C(F)(F)F)c(CSCC(F)(F)F)c1Cl [Example 2-311] | 100 | 100 | 80 | 100 | 100 | 100 | – | – | – |
| CCn1nnnc1NC(=O)c1ccc(C(F)(F)F)c(C[S+]([O-])CC2CC2)c1Cl (stereo not drawn) [Example 2-315] | 100 | 100 | 90 | 100 | 90 | 100 | – | – | – |
| CCn1nnnc1NC(=O)c1ccc(C(F)F)c(CS(C)(=O)=O)c1Cl [Example 2-322] | – | 90 | 100 | 100 | – | 100 | 90 | 90 | – |
| CCSCc1c(C(F)F)ccc(C(=O)Nc2nnnn2CC)c1Cl [Example 2-323] | – | 100 | 100 | 100 | – | 100 | 100 | 90 | – |
| CCn1nnnc1NC(=O)c1ccc(C(F)F)c(C[S+]([O-])CC)c1Cl (stereo not drawn) [Example 2-324] | – | 100 | 100 | 100 | – | 100 | 100 | 100 | – |
| CCn1nnnc1NC(=O)c1ccc(C(F)F)c(CS(=O)(=O)CC)c1Cl [Example 2-325] | 90 | 100 | 100 | 100 | 80 | 100 | – | – | – |
| CCn1nnnc1NC(=O)c1ccc(C(F)(F)F)c(C[S+]([O-])CC)c1Br (stereo not drawn) [Example 2-384] | – | 100 | 90 | 100 | – | 100 | 100 | 100 | – |
| CCn1nnnc1NC(=O)c1ccc(C(F)(F)F)c(CS(=O)(=O)CC)c1Br [Example 2-385] | – | 100 | 100 | 100 | – | 100 | 100 | 100 | – |

— patent US12492173B2, “Herbicidal substituted N-tetrazolyl aryl carboxamides” (Bayer Aktiengesellschaft, priority 2019, dated 2025)
